From patent US10550105B2 (Ribon Therapeutics Inc., priority 2018, dated 2020)

Molecular target: PARP7 (Homo sapiens (Human), UniProt Q7Z3E1)
Assay: Enzymatic assay for inhibition of PARP7: TR-FRET displacement of biotinylated Probe A from the TIPARP active site
Type: binding
Details: Table A-1
Procedure, shortened: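 Displacement of biotinylated Probe A from TIPARP was measured as the 665/615 nm time-resolved FRET ratio (excitation 320 nm, 90 μs delay) after a further 30 min at 25 °C. Inhibition across compound concentrations was fitted by dose-response regression, with the Hill slope free or fixed at 1 (3-parameter fit).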

PARP7, sequence (Q7Z3E1 whole entry): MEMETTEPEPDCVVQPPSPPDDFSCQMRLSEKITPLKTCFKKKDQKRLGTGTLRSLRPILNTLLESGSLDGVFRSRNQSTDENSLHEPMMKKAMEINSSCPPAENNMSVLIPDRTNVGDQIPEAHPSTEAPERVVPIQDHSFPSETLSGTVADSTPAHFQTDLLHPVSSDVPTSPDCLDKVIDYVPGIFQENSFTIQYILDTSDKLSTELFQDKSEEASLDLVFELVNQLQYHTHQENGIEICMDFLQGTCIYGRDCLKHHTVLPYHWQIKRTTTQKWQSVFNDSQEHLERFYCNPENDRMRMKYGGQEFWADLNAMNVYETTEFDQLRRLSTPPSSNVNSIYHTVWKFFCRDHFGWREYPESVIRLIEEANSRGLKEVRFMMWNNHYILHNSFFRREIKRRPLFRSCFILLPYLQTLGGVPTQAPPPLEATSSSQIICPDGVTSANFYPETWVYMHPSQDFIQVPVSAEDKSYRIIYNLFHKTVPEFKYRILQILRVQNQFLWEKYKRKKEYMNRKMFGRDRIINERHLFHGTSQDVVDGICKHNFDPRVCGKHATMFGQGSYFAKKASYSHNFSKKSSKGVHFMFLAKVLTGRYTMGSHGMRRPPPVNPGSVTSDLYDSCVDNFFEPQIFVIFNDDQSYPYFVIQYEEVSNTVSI

Compound	IC50
O=C(CCOCCNc1cn[nH]c(=O)c1C(F)(F)F)N1CCN(c2ncc(Cl)cn2)CC1 [Example 503, 5-[(2-[3-[4-(5-Chloropyrimidin-2-yl)piperazin-1-yl]-3-oxopropoxy]ethyl)amino]-4-(trifluoromethyl)-2,3-dihydropyridazin-3-one]	< 100 nM
O=C(CCOCCNc1cn[nH]c(=O)c1C(F)(F)F)N1CCN(c2ccc(C(F)(F)F)cn2)CC1 [Example 504, 5-[[2-(3-Oxo-3-[4-[5-(Trifluoromethyl)pyridin-2-yl]piperazin-1-yl]propoxy)ethyl]amino]-4-(trifluoromethyl)-2,3-dihydropyridazin-3-one]	< 100 nM
O=C(CCOCCNc1cn[nH]c(=O)c1C(F)(F)F)N1CCN(c2ncc(C(F)(F)F)cn2)CC1 [Example 505, 5-[[2-(3-Oxo-3-[4-[5-(Trifluoromethyl)pyrimidin-2-yl]piperazin-1-yl]propoxy)ethyl]amino]-4-(trifluoromethyl)-2,3-dihydropyridazin-3-one]	< 100 nM
N#Cc1ccc(N2CCN(C(=O)CCOCCNc3cn[nH]c(=O)c3Cl)CC2)nc1 [Example 507]	< 100 nM
O=C(CCOCCNc1cn[nH]c(=O)c1Cl)N1CCN(c2ncc(C(F)(F)F)cn2)CC1 [Example 508, 4-Chloro-5-[[2-(3-oxo-3-[4-[5-(trifluoromethyl)pyrimidin-2-yl]piperazin-1-yl]propoxy)ethyl]amino]-2,3-dihydropyridazin-3-one]	< 100 nM
O=C(CCOCCNc1cn[nH]c(=O)c1Cl)N1CCN(c2ccc(C(F)(F)F)cn2)CC1 [Example 509, 4-Chloro-5-[[2-(3-oxo-3-[4-[5-(trifluoromethyl)pyridin-2-yl]piperazin-1-yl]propoxy)ethyl]amino]-2,3-dihydropyridazin-3-one]	< 100 nM
CN(CCOCCC(=O)N1CCN(c2ccc(C#N)cn2)CC1)c1cn[nH]c(=O)c1C(F)(F)F [Example 510, 6-[4-[3-(2-[Methyl[6-oxo-5-(trifluoromethyl)-1,6-dihydropyridazin-4-yl]amino]ethoxy)propanoyl]piperazin-1-yl]pyridine-3-carbonitrile]	< 100 nM
N#Cc1ccc(N2CCN(C(=O)CCCCCNc3cn[nH]c(=O)c3C(F)(F)F)CC2)nc1 [Example 511, 6-[4-(6-[[6-Oxo-5-(trifluoromethyl)-1,6-dihydropyridazin-4-yl]amino]hexanoyl)piperazin-1-yl]pyridine-3-carbonitrile]	< 100 nM
N#Cc1ccc(N2CCN(C(=O)CCCCCOc3cn[nH]c(=O)c3C(F)(F)F)CC2)nc1 [Example 512, 6-[4-(6-[[6-Oxo-5-(trifluoromethyl)-1,6-dihydropyridazin-4-yl]oxy]hexanoyl)piperazin-1-yl]pyridine-3-carbonitrile]	< 100 nM
CN(CCOc1cn[nH]c(=O)c1C(F)(F)F)CCC(=O)N1CCN(c2ccc(C#N)cn2)CC1 [Example 516]	< 100 nM
N#Cc1ccc(N2CCN(C(=O)COCCCOc3cn[nH]c(=O)c3C(F)(F)F)CC2)nc1 [Example 517, 6-(4-(2-(3-(6-Oxo-5-(trifluoromethyl)-1,6-dihydropyridazin-4-yloxy)propoxy)acetyl)piperazin-1-yl)nicotinonitrile]	< 100 nM
O=C(CCOCCOc1cn[nH]c(=O)c1Cl)N1CCN(c2ncc(C(F)(F)F)cn2)CC1 [Example 520, 4-Chloro-5-[2-(3-oxo-3-[4-[5-(trifluoromethyl)pyrimidin-2-yl]piperazin-1-yl]propoxy)ethoxy]-2,3-dihydropyridazin-3-one]	< 100 nM
N#Cc1ccc(N2CCN(C(=O)CCOCCOc3cn[nH]c(=O)c3Cl)CC2)nc1 [Example 521, 6-[4-(3-[2-[(5-Chloro-6-oxo-1,6-dihydropyridazin-4-yl)oxy]ethoxy]propanoyl)piperazin-1-yl]pyridine-3-carbonitrile]	< 100 nM
O=C(CCOCCOc1cn[nH]c(=O)c1Cl)N1CCN(c2ncc(Cl)cn2)CC1 [Example 522, 4-Chloro-5-(2-[3-[4-(5-chloropyrimidin-2-yl)piperazin-1-yl]-3-oxopropoxy]ethoxy)-2,3-dihydropyridazin-3-one]	< 100 nM
N#Cc1ccc(N2CCN(C(=O)CNCCCOc3cn[nH]c(=O)c3C(F)(F)F)CC2)nc1 [Example 524]	100 to 1000 nM
N#Cc1ccc(N2CCN(C(=O)CCCOCCOc3cn[nH]c(=O)c3C(F)(F)F)CC2)nc1 [Example 525, 6-[4-[4-(2-[[6-Oxo-5-(trifluoromethyl)-1,6-dihydropyridazin-4-yl]oxy]ethoxy)butanoyl]piperazin-1-yl]pyridine-3-carbonitrile]	< 100 nM
CN(CCOCCCN1CCN(c2ccc(C#N)cn2)CC1)c1cn[nH]c(=O)c1C(F)(F)F [Example 526, 6-[4-[3-(2-[Methyl[6-oxo-5-(trifluoromethyl)-1,6-dihydropyridazin-4-yl]amino]ethoxy)propyl]piperazin-1-yl]pyridine-3-carbonitrile]	100 to 1000 nM
N#Cc1ccc(N2CCN(C(=O)CCOCC(CO)Nc3cn[nH]c(=O)c3C(F)(F)F)CC2)nc1 (stereo not drawn) [Example 529, 6-[4-[3-(3-Hydroxy-2-[[6-oxo-5-(trifluoromethyl)-1,6-dihydropyridazin-4-yl]amino]propoxy)propanoyl]piperazin-1-yl]pyridine-3-carbonitrile]	< 100 nM
N#Cc1ccc(N2CCN(C(=O)CCO[C@@H]3COC[C@@H]3Oc3cn[nH]c(=O)c3C(F)(F)F)CC2)nc1 [Example 531, 6-[4-(3-[[(3R,4S)-4-[[6-Oxo-5-(trifluoromethyl)-1,6-dihydropyridazin-4-yl]oxy]oxolan-3-yl]oxy]propanoyl)piperazin-1-yl]pyridine-3-carbonitrile]	< 100 nM
O=C(CCOCCOc1cn[nH]c(=O)c1C(F)(F)F)N1CCN(c2ncc(Cl)cn2)CC1 [Example 533, 5-(2-[3-[4-(5-Chloropyrimidin-2-yl)piperazin-1-yl]-3-oxopropoxy]ethoxy)-4-(trifluoromethyl)-2,3-dihydropyridazin-3-one]	< 100 nM

Continued, values first:

IC50	Compound
< 100 nM	C[C@@H](COCCC(=O)N1CCN(c2ccc(C#N)cn2)CC1)Nc1cn[nH]c(=O)c1C(F)(F)F [Example 513A, (S)-6-(4-(3-(2-(6-Oxo-5-(trifluoromethyl)-1,6-dihydropyridazin-4-ylamino)propoxy)propanoyl)piperazin-1-yl)nicotinonitrile]
100 to 1000 nM	C[C@H](COCCC(=O)N1CCN(c2ccc(C#N)cn2)CC1)Nc1cn[nH]c(=O)c1C(F)(F)F [Example 513B, (R)-6-(4-(3-(2-(6-Oxo-5-(trifluoromethyl)-1,6-dihydropyridazin-4-ylamino)propoxy)propanoyl)piperazin-1-yl)nicotinonitrile]
≥ 1000 nM	N#Cc1ccc(N2CCN(C(=O)CCOC[C@H](Nc3cn[nH]c(=O)c3C(F)(F)F)c3ccccc3)CC2)nc1 [Example 514A, 6-(4-[3-[(2R)-2-[[6-Oxo-5-(trifluoromethyl)-1,6-dihydropyridazin-4-yl]amino]-2-phenylethoxy]propanoyl]piperazin-1-yl)pyridine-3-carbonitrile]
< 100 nM	N#Cc1ccc(N2CCN(C(=O)CCOC[C@@H](Nc3cn[nH]c(=O)c3C(F)(F)F)c3ccccc3)CC2)nc1 [Example 514B, 6-(4-[3-[(2S)-2-[[6-Oxo-5-(trifluoromethyl)-1,6-dihydropyridazin-4-yl]amino]-2-phenylethoxy]propanoyl]piperazin-1-yl)pyridine-3-carbonitrile]
< 100 nM	N#Cc1ccc(N2CCN(C(=O)CCOC[C@H](Cc3ccccc3)Nc3cn[nH]c(=O)c3C(F)(F)F)CC2)nc1 [Example 515B]
< 100 nM	N#Cc1ccc(N2CCN(C(=O)CCOC[C@@H](Nc3cn[nH]c(=O)c3C(F)(F)F)c3ccncc3)CC2)nc1 [Example 527A, 6-(4-[3-[(2S)-2-[[6-Oxo-5-(trifluoromethyl)-1,6-dihydropyridazin-4-yl]amino]-2-(pyridin-4-yl)ethoxy]propanoyl]piperazin-1-yl)pyridine-3-carbonitrile]
≥ 1000 nM	N#Cc1ccc(N2CCN(C(=O)CCOC[C@H](Nc3cn[nH]c(=O)c3C(F)(F)F)c3ccncc3)CC2)nc1 [Example 527B, 6-(4-[3-[(2R)-2-[[6-Oxo-5-(trifluoromethyl)-1,6-dihydropyridazin-4-yl]amino]-2-(pyridin-4-yl)ethoxy]propanoyl]piperazin-1-yl)pyridine-3-carbonitrile]
< 100 nM	C[C@@H](CC(=O)N1CCN(c2ccc(C#N)cn2)CC1)OCCNc1cn[nH]c(=O)c1C(F)(F)F [Example 528A]
< 100 nM	C[C@H](CC(=O)N1CCN(c2ccc(C#N)cn2)CC1)OCCNc1cn[nH]c(=O)c1C(F)(F)F [Example 528B]
< 100 nM	C[C@@H](COCCC(=O)N1CCN(c2ccc(C#N)cn2)CC1)Oc1cn[nH]c(=O)c1C(F)(F)F [Example 530A, 6-(4-[3-[(2S)-2-[[6-Oxo-5-(trifluoromethyl)-1,6-dihydropyridazin-4-yl]oxy]propoxy]propanoyl]piperazin-1-yl)pyridine-3-carbonitrile]
100 to 1000 nM	C[C@H](COCCC(=O)N1CCN(c2ccc(C#N)cn2)CC1)Oc1cn[nH]c(=O)c1C(F)(F)F [Example 530B, 6-(4-[3-[(2R)-2-[[6-Oxo-5-(trifluoromethyl)-1,6-dihydropyridazin-4-yl]oxy]propoxy]propanoyl]piperazin-1-yl)pyridine-3-carbonitrile]
100 to 1000 nM	C[C@@H](COc1cn[nH]c(=O)c1C(F)(F)F)OCCC(=O)N1CCN(c2ccc(C#N)cn2)CC1 [Example 530C, 6-[4-(3-[[(2S)-1-[[6-Oxo-5-(trifluoromethyl)-1,6-dihydropyridazin-4-yl]oxy]propan-2-yl]oxy]propanoyl)piperazin-1-yl]pyridine-3-carbonitrile]
< 100 nM	C[C@H](COc1cn[nH]c(=O)c1C(F)(F)F)OCCC(=O)N1CCN(c2ccc(C#N)cn2)CC1 [Example 530D, 6-[4-(3-[[(2R)-1-[[6-Oxo-5-(trifluoromethyl)-1,6-dihydropyridazin-4-yl]oxy]propan-2-yl]oxy]propanoyl)piperazin-1-yl]pyridine-3-carbonitrile]
